The values that follow come from the supplement of paper PMC12513837.

± gives the standard deviation of the averaged measurements.

Compound in the experiment: CC(=O)N1CCc2c(c(N3CCCc4cc(-c5cnn(C)c5)c(C(F)F)cc43)nn2C2CCC(CN3CCN(c4ccc5c(c4)C(=O)N(C4CCC(=O)NC4=O)C5=O)CC3)CC2)C1 [CBPD-409]
Nature of the experiment: AUC of viability dose-response curve (relative to vehicle, 8 doses up to 10 µM) (fraction); higher = less sensitive (more viable); extreme values may be limits of the assay. The method, then: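 PRISM multiplexed pooled barcoded cell line viability screen at the Broad Institute, 887 cancer cell lines treated with CBPD-409 (p300/CBP PROTAC degrader) at 8 concentrations in threefold dilution, top dose 10 µM. The read-out is the area under the dose-response curve of relative viability versus vehicle (n=3). AUC < 0.3 is called strongly sensitive and AUC > 0.8 resistant.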
As for COLO680N_OESOPHAGUS, the “AUC of viability dose-response curve” value came to 0.653. The same measure for RH28_SOFT_TISSUE: 0.625; for SJSA1_BONE: 0.673 ± 0.46; for DU145_PROSTATE: 0.946. The same measure for MDAPCA2B_PROSTATE: 0.266.

Regarding MCC26_SKIN, the “AUC of viability dose-response curve” value was determined as 0.98. Regarding OSC20_UPPER_AERODIGESTIVE_TRACT, the “AUC of viability dose-response curve” value is 0.936. Take PSN1_PANCREAS: the “AUC of viability dose-response curve” value was 0.639. Regarding SKN_ENDOMETRIUM, the “AUC of viability dose-response curve” value was found to be 0.778.

For SNU398_LIVER, the “AUC of viability dose-response curve” value turned out to be 0.849. Consider G402_SOFT_TISSUE, for which the “AUC of viability dose-response curve” value turned out to be 0.514 ± 0.18. With PANC0504_PANCREAS the figure was 0.671. The same measure for NCIH524_LUNG: 1; for IGR39_SKIN: 0.847; for RERFLCAI_LUNG: 0.913. In the case of NCIH1437_LUNG, the “AUC of viability dose-response curve” value is 0.895. For HCSC1_CERVIX, the “AUC of viability dose-response curve” value is 0.357. As for VAESBJ_SOFT_TISSUE, the “AUC of viability dose-response curve” value came out at 0.8. With GAMG_CENTRAL_NERVOUS_SYSTEM the figure was 0.77; with UMUC7_URINARY_TRACT, 1. Take SW837_LARGE_INTESTINE: the “AUC of viability dose-response curve” value is 0.72. With JEG3_PLACENTA, the “AUC of viability dose-response curve” value worked out at 0.307. The same measure for J82_URINARY_TRACT: 0.921; for HCC56_LARGE_INTESTINE: 0.809; for JHOC5_OVARY: 1.

In the case of SKNBE2_AUTONOMIC_GANGLIA, the “AUC of viability dose-response curve” value turned out to be 0.539 ± 0.23. With 8505C_THYROID the figure was 0.943; with TFK1_BILIARY_TRACT, 0.717. Take NCIH2126_LUNG: the “AUC of viability dose-response curve” value is 1. As for H357_UPPER_AERODIGESTIVE_TRACT, the “AUC of viability dose-response curve” value was found to be 0.815. In the case of SKMEL5_SKIN, the “AUC of viability dose-response curve” value came to 0.506. For the test system WM983B_SKIN, the “AUC of viability dose-response curve” value worked out at 0.774.

UMRC3_KIDNEY: the “AUC of viability dose-response curve” value worked out at 0.929. As for “KARPAS620_HAEMATOPOIETIC_AND_LYMPHOID_TISSUE”, the “AUC of viability dose-response curve” value came out at 0.449. With SUM149PT_BREAST the figure was 0.789; with JL1_PLEURA, 0.532; with TYKNU_OVARY, 0.386. ICC15_BILIARY_TRACT: the “AUC of viability dose-response curve” value was 0.265. SKMEL28_SKIN: the “AUC of viability dose-response curve” value was determined as 0.575. The same measure for T3M10_LUNG: 0.64; for JIMT1_BREAST: 1; for TUHR4TKB_KIDNEY: 1. On to 1618K_TESTIS, for which the “AUC of viability dose-response curve” value amounted to 0.518. With YAPC_PANCREAS the figure was 1; with SW13_ADRENAL_CORTEX, 0.602. With NCIH28_PLEURA, the “AUC of viability dose-response curve” value is 1.

On to SKMEL3_SKIN, for which the “AUC of viability dose-response curve” value was 0.818.

For JHUEM2_ENDOMETRIUM, the “AUC of viability dose-response curve” value turned out to be 0.965. Turning to HCC1954_BREAST, the “AUC of viability dose-response curve” value was 1. With EWS502_BONE the figure was 0.749 ± 0.15. With TT2609C02_THYROID the figure was 0.775; with MS751_CERVIX, 0.923. With SSP25_BILIARY_TRACT the figure was 0.801. As for MEL285_UVEA, the “AUC of viability dose-response curve” value turned out to be 0.639. As for U937_HAEMATOPOIETIC_AND_LYMPHOID_TISSUE, the “AUC of viability dose-response curve” value stood at 1.

With HT1197_URINARY_TRACT, the “AUC of viability dose-response curve” value is 1.

On to EFE184_ENDOMETRIUM, for which the “AUC of viability dose-response curve” value was 0.79. The same measure for NCIH2110_LUNG: 0.703.

For OE33_OESOPHAGUS, the “AUC of viability dose-response curve” value was 0.776. NP2_CENTRAL_NERVOUS_SYSTEM: the “AUC of viability dose-response curve” value was found to be 0.868. T24_URINARY_TRACT: the “AUC of viability dose-response curve” value amounted to 1. With CH157MN_CENTRAL_NERVOUS_SYSTEM the figure was 0.899; with SNUC2A_LARGE_INTESTINE, 0.514; with SNU601_STOMACH, 0.563. The same measure for MMNK1_BILIARY_TRACT: 0.479; for MDAMB361_BREAST: 0.368; for U87MG_CENTRAL_NERVOUS_SYSTEM: 0.732.

LNCAPCLONEFGC_PROSTATE: the “AUC of viability dose-response curve” value worked out at 0.249. Consider MELJUSO_SKIN, for which the “AUC of viability dose-response curve” value was 1. Regarding “KHM1B_HAEMATOPOIETIC_AND_LYMPHOID_TISSUE”, the “AUC of viability dose-response curve” value is 0.665. With OE21_OESOPHAGUS the figure was 1; with SNU638_STOMACH, 0.48; with UMUC13_URINARY_TRACT, 0.199. CAL29_URINARY_TRACT: the “AUC of viability dose-response curve” value was found to be 0.7. The same measure for SNU61_LARGE_INTESTINE: 0.875.

Turning to 253J_URINARY_TRACT, the “AUC of viability dose-response curve” value was 1. The same measure for BT16_SOFT_TISSUE: 1. The same measure for NCIH2087_LUNG: 0.834. With GCIY_STOMACH the figure was 0.542; with AGS_STOMACH, 0.812. Regarding LOUNH91_LUNG, the “AUC of viability dose-response curve” value was determined as 0.731. On to ANGMCSS_CENTRAL_NERVOUS_SYSTEM, for which the “AUC of viability dose-response curve” value was 1.

PK45H_PANCREAS: the “AUC of viability dose-response curve” value was 1.

Regarding CAL33_UPPER_AERODIGESTIVE_TRACT, the “AUC of viability dose-response curve” value worked out at 0.694.

Take HCC1806_BREAST: the “AUC of viability dose-response curve” value came to 1.

As to “DOHH2_HAEMATOPOIETIC_AND_LYMPHOID_TISSUE”, the “AUC of viability dose-response curve” value turned out to be 0.468. The same measure for FLO1_OESOPHAGUS: 0.731. As to NCIH196_LUNG, the “AUC of viability dose-response curve” value amounted to 0.755. The same measure for BICR6_UPPER_AERODIGESTIVE_TRACT: 0.907. The same measure for RH30_SOFT_TISSUE: 0.841 ± 0.22. For the test system HEC1_ENDOMETRIUM, the “AUC of viability dose-response curve” value stood at 1. For HS939T_SKIN, the “AUC of viability dose-response curve” value was 0.815. With A172_CENTRAL_NERVOUS_SYSTEM the figure was 0.797; with TE9_OESOPHAGUS, 1; with SNU1214_UPPER_AERODIGESTIVE_TRACT, 0.739.

Take NCIH1651_LUNG: the “AUC of viability dose-response curve” value was 1. The same measure for LI7_LIVER: 1; for HT55_LARGE_INTESTINE: 0.509; for OVTOKO_OVARY: 0.781.

In the case of CORL23_LUNG, the “AUC of viability dose-response curve” value came out at 1.

Take “U2973_HAEMATOPOIETIC_AND_LYMPHOID_TISSUE”: the “AUC of viability dose-response curve” value came out at 0.734.

Regarding UMUC1_URINARY_TRACT, the “AUC of viability dose-response curve” value came to 0.703. With TE8_OESOPHAGUS, the “AUC of viability dose-response curve” value turned out to be 0.646. The same measure for SW1088_CENTRAL_NERVOUS_SYSTEM: 1; for NCIH596_LUNG: 1. The same measure for HCC44_LUNG: 1; for LK2_LUNG: 0.178; for SKGT2_STOMACH: 0.887. As for STM9101_SOFT_TISSUE, the “AUC of viability dose-response curve” value stood at 1.

Turning to QGP1_PANCREAS, the “AUC of viability dose-response curve” value is 0.661. BFTC909_KIDNEY: the “AUC of viability dose-response curve” value came out at 1. With NCIH2030_LUNG the figure was 1; with VAL_HAEMATOPOIETIC_AND_LYMPHOID_TISSUE, 0.56; with SKNAS_AUTONOMIC_GANGLIA, 1.

On to SW1573_LUNG, for which the “AUC of viability dose-response curve” value was found to be 1.

As for KON_UPPER_AERODIGESTIVE_TRACT, the “AUC of viability dose-response curve” value stood at 0.7.

On to ISHIKAWAHERAKLIO02ER_ENDOMETRIUM, for which the “AUC of viability dose-response curve” value turned out to be 1.

As for HS294T_SKIN, the “AUC of viability dose-response curve” value came to 0.929. The same measure for PECAPJ15_UPPER_AERODIGESTIVE_TRACT: 0.917; for OV7_OVARY: 1. With LXF289_LUNG the figure was 0.522; with UBLC1_URINARY_TRACT, 0.437.

In the case of WERIRB1_AUTONOMIC_GANGLIA, the “AUC of viability dose-response curve” value was 1.
